Here are results for six compounds from publication PMC4959447 (Journal of medicinal chemistry, 2015).

For data set [1], the system named is panel of 60 human cancer cell lines. Briefly: NCI-60 five-dose screen, whole panel. The data set is classed as cell-based.
Data set [2] has as its system leukemia cell lines. Briefly: NCI-60 five-dose screen, leukemia sub-panel. The data set is classed as cell-based. The settings on record: Homo sapiens, read-out: GI50 values in the range.
Data set [3] concerns primary AML cell specimen AML03. In words: Primary AML cell assay. The data set is classed as cell-based. The settings on record: Homo sapiens, 24 h.
Data set [4] has as its system primary AML cell specimens. In words: Primary AML cell assay, specimens taken together. The data set is classed as cell-based. The settings on record: Homo sapiens.
The subject of data set [5] is rat 9L-SF gliosarcoma cells. In words: Colony formation assay with 9L-SF cells.
Data set [6] relates to M9-ENL1 cells. Briefly: M9-ENL1 cell assay. The data set is classed as cell-based. The settings on record: M9-ENL1, 24 h.

Where “and” joins values, the source holds several entries; their conditions need not be identical. Identical values can stand only once. Like-named read-outs stand apart in the source and are kept apart here. Bounds are passed on as bounds.

Regarding `C=C1C(=O)O[C@H]2[C@H]1CC/C(COC(=O)NCCCCCCCCNC(=O)OC/C1=C/CC[C@@]3(C)O[C@H]3[C@H]3OC(=O)C(=C)[C@@H]3CC1)=C\CC[C@@]1(C)O[C@@H]21` [7f, bis-E-(((1aR,7aS,10aS,10bS)-1a-Methyl-8-methylene-9-oxo-1a,2,3,6,7,7a,8,9,10a,10b-decahydrooxireno[2',3':9,10]cyclodeca[1,2-b]furan-5-yl)methyl)octane-1,8-diyldicarbamate], the GI50 (commonly the concentration at which growth is held to half of that of the control) is 160 to 999 nM in data set [1] (60 cell, read-out: GI50 values in the nanomolar range, against most of the solid tumor cell lines in the 60 cell panel); less than 500 nM in data set [1] (read-out: GI50 values, against more than 50% of the cancer cell lines in the panel); 250 to 780 nM in data set [2].

As for `C=C1C(=O)O[C@H]2[C@H]1CC/C(COC(=O)OCCCCCOC(=O)OC/C1=C/CC[C@@]3(C)O[C@H]3[C@H]3OC(=O)C(=C)[C@@H]3CC1)=C\CC[C@@]1(C)O[C@@H]21` [7j, bis-E-(((1aR,7aS,10aS,10bS)-1a-Methyl-8-methylene-9-oxo-1a,2,3,6,7,7a,8,9,10a,10b-decahydrooxireno[2',3':9,10]cyclodeca[1,2-b]furan-5-yl)methyl)pentane-1,5-diyldicarbonate], in data set [3], the EC50 – broadly, the concentration giving half of the maximal effect – is 1200 nM.

As for `C=C1C(=O)O[C@@H]2[C@H]3O[C@]3(C)CC/C=C(\C)CC[C@@H]12` [compound 1, parthenolide], the EC50 in data set [3] was 5000 nM; in data set [4] (AML01, read-out: EC50 (range)), 2500 to 8000 nM; in data set [4] (read-out: EC50 (range)), 2500 to 16000 nM.

Regarding `C=C1C(=O)O[C@H]2[C@H]1CC/C(COC(=O)NCCCCCNC(=O)OC/C1=C/CC[C@@]3(C)O[C@H]3[C@H]3OC(=O)C(=C)[C@@H]3CC1)=C\CC[C@@]1(C)O[C@@H]21` [7c, bis-E-(((1aR,7aS,10aS,10bS)-1a-Methyl-8-methylene-9-oxo-1a,2,3,6,7,7a,8,9,10a,10b-decahydrooxireno[2',3':9,10]cyclodeca[1,2-b]furan-5-yl)methyl)pentane-1,5-diyldicarbamate], the concentration for 50% growth inhibition (GI50) in data set [2] fell in the range of 250 to 780 nM.

`C=C1C(=O)O[C@H]2[C@H]1CC/C(COC(=O)OC/C1=C/CC[C@@]3(C)O[C@H]3[C@H]3OC(=O)C(=C)[C@@H]3CC1)=C\CC[C@@]1(C)O[C@@H]21` [compound 8, bis-E-(((1aR,7aS,10aS,10bS)-1a-Methyl-8-methylene-9-oxo-1a,2,3,6,7,7a,8,9,10a,10b-decahydrooxireno[2',3':9,10]cyclodeca[1,2-b]furan-5-yl)methyl) carbonate]: the “fold more cytotoxic than DMAPT” value in data set [5] (clonogenic survival, 48 h, at a concentration of 10 μM) is 1 × 10^6 fold and 1.08 × 10^6 fold. For the same compound, in data set [5] (colony formation assay, at 10 μM), the “fold more toxic than compound 7f” value is listed as 3,564 fold. The same compound returned an EC50 in data set [6] of 500 nM.

As to `C=C1C(=O)O[C@H]2[C@H]1CC/C(COC(=O)NCCCCNC(=O)OC/C1=C/CC[C@@]3(C)O[C@H]3[C@H]3OC(=O)C(=C)[C@@H]3CC1)=C\CC[C@@]1(C)O[C@@H]21` [7b, bis-E-(((1aR,7aS,10aS,10bS)-1a-Methyl-8-methylene-9-oxo-1a,2,3,6,7,7a,8,9,10a,10b-decahydrooxireno[2',3':9,10]cyclodeca[1,2-b]furan-5-yl)methyl)butane-1,4-diyldicarbamate], in data set [2], the GI50 was 250 to 780 nM.
